The assay has as its system Saccharomyces cerevisiae lifespan shortening, growth inhibition. Put plainly: Saccharomyces cerevisiae growth inhibition potency – dose response (AID 849).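 Also: yeast growth read as optical density after two days at 30 degrees C.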

One may read the IC50 as the point on the concentration scale where inhibition reaches its midpoint.

Calls of active or inactive are those of the source. No rule for the calls is given here. A value given as a limit tells only on which side of the number the result lay.

Turning to `CNc1nnc(-c2cc3cc(Cl)ccc3oc2=O)s1`, the IC50 is > 100 µM (inactive).

Regarding `Cc1nc2cc3ccccc3cc2c(=O)[nH]1`, the IC50 was > 100 µM (inactive).

Take `Cc1nc(N/N=C/c2ccccn2)sc1C`: the half-maximal inhibitory concentration (IC50) is 33.7 µM.

`OC(CNCCC1C=Nc2ccccc21)Cn1c2ccc(Cl)cc2c2cc(Cl)ccc21` (centres undefined): the IC50 is 20 µM.

With `CC(C)(C)c1ccc(-c2nc(-c3ccncc3)no2)cc1`, the half-inhibitory concentration (IC50) was 23.1 µM.

`COc1ccc(C(=O)N/N=C/c2sc3ccccc3c2O)cc1`: the IC50 was > 100 µM (inactive).

`CCn1c(=O)c(C(=O)Nn2c(C)nc3ccccc3c2=O)c(O)c2ccccc21`: the IC50 was 15.5 µM.

In the case of `COc1ccc(NC(=O)C2CCCN2S(=O)(=O)c2cccc3cccnc23)c(OC)c1` (centres undefined), the half-inhibitory concentration (IC50) is 40.5 µM.

For the compound `C=C(C)COc1ccc(-c2[nH]ncc2Oc2ccccc2OC)c(O)c1`, the IC50 is > 100 µM (inactive).

On to `CCC(=C(c1ccc(OC)cc1)c1ccc(OC)cc1)c1cn(CC(O)CN2CCN(C)CC2)c2ccccc12` (centres undefined), for which the half-inhibitory concentration (IC50) was 36.9 µM.

For the compound `N#C/C(=C\c1ccc([N+](=O)[O-])o1)c1nc2ccccc2[nH]1`, the IC50 was > 100 µM (inactive).

In the case of `c1ccc(Cc2nnc3sc(-c4ccco4)nn23)cc1`, the IC50 was > 100 µM (inactive).

With `COc1ccc(-c2cc(-c3ccccc3O)[nH]n2)cc1`, the IC50 is > 100 µM (inactive).

Turning to `CC(=O)NC(=S)c1c(N)n(Cc2ccccc2)c(=O)n(C)c1=O`, the IC50 was > 100 µM (inactive).

For the compound `Cc1ccccc1OCCCN1C(=O)C(=O)c2cccc(C)c21`, the IC50 is > 100 µM (inactive).

For `CCCCN=C(NNc1ccc(Br)cc1)C(=O)OCC`, the IC50 is 5.3 µM.

`O=C(O)c1cc2c(ccc3ccccc32)oc1=O`: the half-maximal inhibitory concentration (IC50) was 11.9 µM.

As for `Cc1cc(C)c2c(=O)n(CC(=O)N3CCC(Cc4ccccc4)CC3)sc2n1`, the IC50 is > 100 µM (inactive).

Regarding `CC(=O)O/N=C/c1c(N2CCOCC2)n(C)c2ccccc12`, the IC50 was 12.4 µM.

Consider `CCOC(=O)c1c(/N=C/c2cc([N+](=O)[O-])ccc2O)sc(C)c1C`, for which the concentration for half-maximal inhibition (IC50) was 47.1 µM.

For the compound `CN(c1ccccc1)c1ccc(/C=C/[N+](=O)[O-])cc1`, the IC50 is 49.2 µM.

On to `Cn1cccc1Cc1nnc(SCC(=O)Nc2nccs2)n1CCc1ccccc1`, for which the IC50 was > 100 µM (inactive).

Take `COc1cc(/C=N/N(C)c2ccccc2)cc(Cl)c1O`: the IC50 is > 100 µM (inactive).

In the case of `Cc1nc2ccccc2c2nc3ccccc3n12`, the IC50 was 5.3 µM.

Turning to `Cc1ccc(NC(=O)ON=C2CCCC2)cc1`, the half-inhibitory concentration (IC50) is 9.19 µM.

`c1ccc(-c2ccc(C(c3ccccc3)n3ccnc3)cc2)cc1` (centres undefined): the half-maximal inhibitory concentration (IC50) is 1.67 µM.

As for `O=C(c1cc(-c2ccccc2O)on1)N1CCc2ccccc2C1`, the IC50 was > 100 µM (inactive).

For `CC(=O)N1CCN(c2ccc(OC[C@H]3CO[C@](Cn4ccnc4)(c4ccc(Cl)cc4Cl)O3)cc2)CC1`, the IC50 is 9.27 µM.

Take `Oc1ccc(/C=C/c2nc(-c3ccccc3O)n(-c3ccccc3)n2)cc1`: the IC50 is > 100 µM (inactive).

Regarding `O=C(O)c1ccccc1C(=O)NNc1ccc(Cl)cc1`, the IC50 is 4.61 µM.

Turning to `Cc1cccc(CSc2cccc3cccnc23)c1`, the IC50 is 33.1 µM.

With `O=c1[nH]c2ccccc2c2nc3ccccn3c12`, the IC50 is 40 µM.

As to `Cc1nnc(NC(=O)CSc2nnc(Cc3cccn3C)n2-c2ccccc2)s1`, the IC50 was > 100 µM (inactive).

As to `CCCC(=O)NC(c1cccs1)c1cc([N+](=O)[O-])c2cccnc2c1O` (centres undefined), the concentration for half-maximal inhibition (IC50) is 16.6 µM.

In the case of `O=C1c2ccccc2C(=O)N1Cc1ccco1`, the IC50 is > 100 µM (inactive).

`CC(=O)/C(=N\Nc1ccc(C)cc1)N1CCOCC1`: the half-inhibitory concentration (IC50) was 11.1 µM.

As to `CC1=CC(=O)C=C(C)C1=NOS(=O)(=O)c1ccccc1`, the IC50 is > 100 µM (inactive).

Regarding `O=C(Nc1nc(-c2ccccn2)cs1)c1ccc(Br)s1`, the IC50 was 9.04 µM.

Turning to `N=c1n(CCN2CCOCC2)c2ccccc2n1CC(=O)c1ccc(Cl)c(Cl)c1`, the IC50 was > 100 µM (inactive).
